In patent US9573911B2, “Diphosphate mimetics and uses thereof” (President and Fellows of Harvard College, priority 2011, dated 2017):
Where two headings read alike, the source gives them in different places.

Assays:
Type in all cases: biochemical
OGT [1] = target: T1, OGT (Homo sapiens, UniProt O15294); test: IC50 assay, OGT peptide-capture assay
T1 construct: hOGT4.5 construct (spanning residues 313-1031 based on the numbering of the full length human protein); made in house
T1 sequence (O15294 313-1031 isoform O15294-3): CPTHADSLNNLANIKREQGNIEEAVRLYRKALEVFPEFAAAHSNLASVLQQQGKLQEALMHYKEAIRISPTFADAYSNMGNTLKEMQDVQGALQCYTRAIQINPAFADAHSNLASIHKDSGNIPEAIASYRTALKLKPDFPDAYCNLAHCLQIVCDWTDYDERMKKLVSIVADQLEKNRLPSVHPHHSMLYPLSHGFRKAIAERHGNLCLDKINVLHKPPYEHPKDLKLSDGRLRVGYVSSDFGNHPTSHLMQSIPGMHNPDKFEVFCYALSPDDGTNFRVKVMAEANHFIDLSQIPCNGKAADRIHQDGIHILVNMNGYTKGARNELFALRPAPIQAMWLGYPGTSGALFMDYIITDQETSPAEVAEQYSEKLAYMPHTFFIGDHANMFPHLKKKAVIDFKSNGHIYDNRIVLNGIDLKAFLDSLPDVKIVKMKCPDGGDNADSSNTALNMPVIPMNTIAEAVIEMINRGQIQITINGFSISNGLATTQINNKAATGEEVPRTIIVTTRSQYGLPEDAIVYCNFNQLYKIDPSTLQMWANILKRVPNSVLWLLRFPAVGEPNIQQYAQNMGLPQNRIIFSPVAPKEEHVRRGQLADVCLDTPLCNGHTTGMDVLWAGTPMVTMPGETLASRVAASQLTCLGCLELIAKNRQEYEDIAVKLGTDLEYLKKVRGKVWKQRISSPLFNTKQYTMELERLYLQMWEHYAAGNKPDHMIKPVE
Description: IC50 Assay of Thiocarbamate to OGT.
Enzyme activity was tested with the peptide-capture assay in the presence of different concentrations of each compound as previously reported (J. Am. Chem. Soc. 2005, 127, 14588-14589).

OGT [2] = target: T1, OGT; test: Time-dependent inactivation of OGT with BZX compounds
From the text: Compound (1) was identified in a high-throughput screen of 65,000 compounds (FIG. 1). See, e.g., Gross et al., J. Am. Chem. Soc. (2005) 127:14588-14589. It contains a dicarbamate moiety that links two aromatic groups. This compound features a conjugated chemical structure and both carbamate carbonyls are potentially reactive. See, e.g., Alexander et al., Chem. Biol. (2005) 12:1179-1187. […] A small panel of related compounds was made from commercially available building blocks in order to identify structural features that might improve potency. Time-dependent inactivation studies were carried out in which OGT was preincubated with a three-fold excess of each compound for 5 min, and the mixture was then diluted 100-fold into buffer containing UDP-^14C-GlcNAc and the well-characterized peptide substrate, CKII. See, e.g., Kreppel et al., J. Biol. Chem. (1999) 274:32015-32022). Enzyme activity was measured using a previously developed peptide capture assay. See, e.g., Gross et al., J. Am. Chem. Soc. (2005) 127:14588-14589.
Each BZX compound (7.5 μM) was preincubated with 5 μM OGT in reaction buffer (125 mM NaCl, 1 mM EDTA, 20 mM potassium phosphate, pH 7.4, and 500 μM tris(hydroxypropyl)phosphine (THP)) at room temperature for different amount of time, then diluted 100-fold, mixed with substrates (6 μM UDP-^14C-GlcNAc and 500 μM CKII peptide (KKKYPGGSTPVSSANMM)) and allowed to react for another 2 h. Enzyme activity was tested with the peptide capture assay as previously reported. See, e.g., Gross et al., J. Am. Chem. Soc. (2005) 127:14588-14589. The final volume of each reaction was 20 μl, and the experiments were conducted in triplicate. The activities of OGT mutants were also tested in triplicate as previously reported. See, e.g., Gross supra.

ADRBK1 (GRK2) = target: T2, ADRBK1 (GRK2) (Homo sapiens, UniProt P25098); test: Kinase profiling, Invitrogen Z'-LYTE
T2 construct: purchased Invitrogen
T2 sequence (P25098 1-689): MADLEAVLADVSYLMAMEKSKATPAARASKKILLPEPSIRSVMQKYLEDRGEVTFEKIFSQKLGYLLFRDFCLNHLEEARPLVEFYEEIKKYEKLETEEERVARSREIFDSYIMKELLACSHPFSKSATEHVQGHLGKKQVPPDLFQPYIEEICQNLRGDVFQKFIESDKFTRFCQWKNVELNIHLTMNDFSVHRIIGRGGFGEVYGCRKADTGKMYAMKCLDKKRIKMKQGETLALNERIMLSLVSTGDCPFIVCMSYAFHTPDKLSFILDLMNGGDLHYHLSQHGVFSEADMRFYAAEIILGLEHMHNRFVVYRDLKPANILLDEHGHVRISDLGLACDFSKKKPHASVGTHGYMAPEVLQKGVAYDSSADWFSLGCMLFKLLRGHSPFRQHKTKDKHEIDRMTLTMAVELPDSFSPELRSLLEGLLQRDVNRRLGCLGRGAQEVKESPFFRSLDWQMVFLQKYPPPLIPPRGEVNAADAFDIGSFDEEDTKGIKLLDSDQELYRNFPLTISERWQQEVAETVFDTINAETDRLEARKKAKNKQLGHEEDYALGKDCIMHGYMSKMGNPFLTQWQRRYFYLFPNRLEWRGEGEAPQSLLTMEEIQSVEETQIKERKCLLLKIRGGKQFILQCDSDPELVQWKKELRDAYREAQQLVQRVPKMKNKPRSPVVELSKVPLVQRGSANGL
Description: (§1) Kinase profiling was conducted using Invitrogen Z'-LYTE screening protocol and assay conditions found at www.invitrogen.com. Compound (2) inhibited PLK1 completely at 5 μM.
(§2) A further kinase screen was performed on Compounds (2), (4A), and (4B) using the assay described above.

PLK1 = target: T3, PLK1 (Homo sapiens, UniProt P53350); test: Kinase profiling, Invitrogen Z'-LYTE; settings: for inhibition at 5 µM / % Inhibition Point 1 / % Inhibition Point 2 / % Inhibition mean: PLK1; for inhibition at 5 µM: Table 2; for % Inhibition Point 1 / % Inhibition Point 2 / % Inhibition mean: Table 3 further screen
T3 construct: purchased Invitrogen
Description: as §1, §2

RPS6KA5 (MSK1) = target: T4, RPS6KA5 (MSK1) (Homo sapiens, UniProt O75582); test: Further kinase screen, Invitrogen Z'-LYTE; settings: Table 3
T4 construct: purchased Invitrogen
Description: as §1, §2

MARK3 = target: T5, MARK3 (Homo sapiens, UniProt P27448); test: Further kinase screen, Invitrogen Z'-LYTE; settings: Table 3
T5 construct: purchased Invitrogen
Description: as §1, §2

[3] = peptide-capture assay, different concentrations of each compound, read-out: IC50 Values

T5 sequence (P27448 whole entry): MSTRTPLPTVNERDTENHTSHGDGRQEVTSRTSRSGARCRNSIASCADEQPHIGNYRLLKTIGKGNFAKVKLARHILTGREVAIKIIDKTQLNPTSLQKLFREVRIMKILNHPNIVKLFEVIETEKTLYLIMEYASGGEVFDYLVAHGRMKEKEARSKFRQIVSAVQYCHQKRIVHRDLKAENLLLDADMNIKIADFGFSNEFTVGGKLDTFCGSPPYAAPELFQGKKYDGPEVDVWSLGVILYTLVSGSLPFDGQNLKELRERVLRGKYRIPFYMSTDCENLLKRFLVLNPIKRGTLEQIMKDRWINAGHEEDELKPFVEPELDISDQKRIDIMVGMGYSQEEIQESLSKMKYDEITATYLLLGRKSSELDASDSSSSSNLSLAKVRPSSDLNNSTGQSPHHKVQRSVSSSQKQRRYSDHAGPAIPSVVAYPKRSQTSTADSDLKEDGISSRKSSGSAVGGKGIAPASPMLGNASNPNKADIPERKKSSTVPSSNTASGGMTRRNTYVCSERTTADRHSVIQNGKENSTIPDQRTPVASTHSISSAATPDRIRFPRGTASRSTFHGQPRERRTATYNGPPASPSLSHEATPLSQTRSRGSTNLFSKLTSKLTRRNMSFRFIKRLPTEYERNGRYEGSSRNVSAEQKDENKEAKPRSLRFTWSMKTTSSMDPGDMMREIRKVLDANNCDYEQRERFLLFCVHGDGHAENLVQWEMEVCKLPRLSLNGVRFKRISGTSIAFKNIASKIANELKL
T4 sequence (O75582 whole entry): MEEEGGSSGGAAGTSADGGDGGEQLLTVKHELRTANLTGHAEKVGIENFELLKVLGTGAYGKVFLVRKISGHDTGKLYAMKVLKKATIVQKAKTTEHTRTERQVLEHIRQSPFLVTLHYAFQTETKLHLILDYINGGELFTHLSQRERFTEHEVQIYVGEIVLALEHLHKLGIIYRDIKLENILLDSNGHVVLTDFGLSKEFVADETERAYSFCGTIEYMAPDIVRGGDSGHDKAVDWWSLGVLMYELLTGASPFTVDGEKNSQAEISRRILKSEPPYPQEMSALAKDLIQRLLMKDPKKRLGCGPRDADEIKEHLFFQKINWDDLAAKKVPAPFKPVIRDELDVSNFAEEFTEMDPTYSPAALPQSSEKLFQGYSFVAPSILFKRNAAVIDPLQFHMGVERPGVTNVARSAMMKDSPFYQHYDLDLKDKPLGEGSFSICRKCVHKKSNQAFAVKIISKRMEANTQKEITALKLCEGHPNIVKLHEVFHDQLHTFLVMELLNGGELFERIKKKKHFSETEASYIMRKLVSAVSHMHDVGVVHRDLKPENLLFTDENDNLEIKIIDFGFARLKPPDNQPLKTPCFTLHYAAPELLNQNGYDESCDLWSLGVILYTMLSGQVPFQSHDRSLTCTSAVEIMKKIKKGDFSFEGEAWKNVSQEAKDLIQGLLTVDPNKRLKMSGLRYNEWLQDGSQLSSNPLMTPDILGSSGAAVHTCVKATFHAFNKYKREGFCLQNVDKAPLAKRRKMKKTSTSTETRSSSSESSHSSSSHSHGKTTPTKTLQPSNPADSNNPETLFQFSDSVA
T3 sequence (P53350 whole entry): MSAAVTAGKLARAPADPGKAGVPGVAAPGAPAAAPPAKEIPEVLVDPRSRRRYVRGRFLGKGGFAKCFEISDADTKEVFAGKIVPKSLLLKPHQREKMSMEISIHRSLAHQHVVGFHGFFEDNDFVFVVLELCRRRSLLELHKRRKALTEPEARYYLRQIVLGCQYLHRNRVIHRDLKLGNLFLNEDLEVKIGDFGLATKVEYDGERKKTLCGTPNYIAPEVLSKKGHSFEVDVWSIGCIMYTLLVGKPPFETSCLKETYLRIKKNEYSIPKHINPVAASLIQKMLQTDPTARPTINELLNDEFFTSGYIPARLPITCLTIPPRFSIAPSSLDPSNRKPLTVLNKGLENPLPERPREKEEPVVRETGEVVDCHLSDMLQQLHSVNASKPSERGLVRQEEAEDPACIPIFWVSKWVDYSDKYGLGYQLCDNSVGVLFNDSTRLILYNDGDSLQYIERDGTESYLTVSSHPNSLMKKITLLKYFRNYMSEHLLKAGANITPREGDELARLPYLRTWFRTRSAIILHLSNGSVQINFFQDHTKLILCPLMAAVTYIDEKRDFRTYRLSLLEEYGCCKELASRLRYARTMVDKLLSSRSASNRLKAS

| IC50 (OGT [1]; [3]) [µM] | % Inhibition Point 1 (ADRBK1 (GRK2); Table 3 further screen) [%] | % Inhibition Point 2 (ADRBK1 (GRK2); Table 3 further screen) [%] | % Inhibition mean (ADRBK1 (GRK2); Table 3 further screen) [%] | % Inhibition Point 1 (PLK1) [%] | % Inhibition Point 2 (PLK1) [%] | % Inhibition mean (PLK1) [%] | % Inhibition Point 1 (RPS6KA5 (MSK1)) [%] | % Inhibition Point 2 (RPS6KA5 (MSK1)) [%] | % Inhibition mean (RPS6KA5 (MSK1)) [%] | % Inhibition Point 1 (MARK3) [%] | % Inhibition Point 2 (MARK3) [%] | % Inhibition mean (MARK3) [%] | SMILES | also measured |
| --- | --- | --- | --- | --- | --- | --- | --- | --- | --- | --- | --- | --- | --- | --- |
| 14 | 3 | 7 | 5 | 70 | 65 | 68 | 35 | 32 | 33 | 8 | 12 | 10 | COc1ccc(OC(=S)n2c(=O)oc3cc(C(C)=O)ccc32)cc1 [Compound 4A] | – |
| ~100 | 7 | 6 | 7 | 98 | 101 | 100 | 49 | 48 | 49 | 34 | 36 | 35 | COc1ccc(OC(=O)n2c(=S)oc3cc(C(C)=O)ccc32)cc1 [Compound 4B] | – |

| SMILES | IC50 (OGT [1]; [3]) [µM] | % Inhibition Point 1 (ADRBK1 (GRK2); Table 3 further screen) [%] | % Inhibition Point 2 (ADRBK1 (GRK2); Table 3 further screen) [%] | % Inhibition mean (ADRBK1 (GRK2); Table 3 further screen) [%] | % Inhibition Point 1 (PLK1) [%] | % Inhibition Point 2 (PLK1) [%] | % Inhibition mean (PLK1) [%] | % Inhibition Point 1 (RPS6KA5 (MSK1)) [%] | % Inhibition Point 2 (RPS6KA5 (MSK1)) [%] | % Inhibition mean (RPS6KA5 (MSK1)) [%] | % Inhibition Point 1 (MARK3) [%] | % Inhibition Point 2 (MARK3) [%] | % Inhibition mean (MARK3) [%] | also measured |
| --- | --- | --- | --- | --- | --- | --- | --- | --- | --- | --- | --- | --- | --- | --- |
| COc1ccc(OC(=O)n2c(=O)oc3cc(C(C)=O)ccc32)cc1 [Compound 2] | 2 | 4 | 7 | 5 | 101 | 101 | 101 | −215 | −231 | −223 | – | – | – | IC50 (OGT [1]; read-out: apparent IC50): 1.6 ± 1.1 µM; inactivation time course of OGT (OGT [2]; 1.5:1 inhibitor:enzyme ratio): fully inactivated OGT; OGT inactivation in the presence of UDP-GlcNAc in the preincubation mixture (OGT [2]; OGT 5 μM, compound 20 μM, UDP-GlcNAc 40 μM, 2-20 min): UDP-GlcNAc reduced the rate of inactivation; time to full inactivation of OGT (OGT [2]; near 1:1 ratio): ≤ 5 min; % Inhibition Point 1 (ADRBK1 (GRK2); Table 2): 2%; % Inhibition Point 2 (ADRBK1 (GRK2); Table 2): 5%; % Inhibition mean (ADRBK1 (GRK2); Table 2): 4%; PLK1 inhibition (PLK1; 5 μM): completely; inhibition at 5 µM (PLK1; 5 μM, read-out: % Inhibition Point 1): 104%; inhibition at 5 µM (PLK1; 5 μM, read-out: % Inhibition Point 2): 104%; inhibition at 5 µM (PLK1; 5 μM, read-out: % Inhibition mean): 104% |
